From patent EP2607478A1, “Phenanthroline treated MSC” (Universiteit Twente, priority 2011, dated 2013)
Counter-ions that a name gives are not always drawn.

Test system: MSCs
Assay: Gene expression analysis by real-time qPCR in treated MSCs
Assay type: cell-based, Human
Conditions: primary MSCs, 1 nM, 10 nM and 1 uM, 2 days, qPCR (Figure 7)
Method: MSCs were seeded in triplicate in 6-well plates at 5000 cells/cm^2 and allowed to attach for 10-15 hours in proliferation medium. Upon reaching near confluency, cells were treated as described above. After 2 days of treatment and 2 subsequent days of incubation with fresh medium, cells were lysed immediately with TRIzol. RNA was isolated using a Bioke RNA II nucleospin RNA isolation kit (Machery Nagel) and RNA concentrations were measured using an ND100 spectrophotometer (Nanodrop technologies, USA). cDNA was synthesized from 100 ng of RNA, using iScript (BioRad) according to the manufacturer's protocol. For qualitative PCR, a master mix, containing distilled water, forward primer, reverse primer (Sigma Genosys), BSA, and SYBR green I mix (all from Invitrogen) was prepared. Real-time qPCR was performed in a Light-Cycler (Roche). Light-Cycler data was analyzed using the fit points method of Light-Cycler software. The baseline was set at the lower log-linear part above baseline noise and the crossing […] (Ct value) was determined. Ct values were normalized to the 18S housekeeping gene and delta Ct (Ct, control ― Ct, sample) was used to calculate the upregulation in gene expression (53).

`CCN(CC)CCCC(C)Nc1c2ccc(Cl)cc2nc2ccc(OC)cc12` (stereo not shown) [Quinacrine hydrochloride] was tested, and the VEGF gene expression was “does not affect VEGF gene expression”.
